# Assay results taken from patent US9586952B2, “Polycyclic estrogen receptor modulators and uses thereof” (SERAGON PHARMACEUTICALS, INC., priority 2013, dated 2017).
# What was measured:
# [1] = tested on: MCF-7 cells; test: MCF7 Viability Assay (Breast Cancer Cell Viability Assay); assay type: cell-based; conditions: 5 days' compound exposure, CellTiter-Glo; for IC50: Homo sapiens, MCF7, 120 h
# Description: MCF-7 cells were adjusted to a concentration of 20,000 cells per mL in RPMI containing 10% FBS and 20 mM HEPES. 16 microliters of the cell suspension (320 cells) was added to each well of a 384 well plate, and the cells were incubated overnight to allow the cells to adhere. The following day an eleven point, serial semilog dilution of each compound was added to the cells in 16 μL at a final concentration ranging from 0.3-0.000003 μM. After 5 days' compound exposure, 16 μL of CellTiter-GLo (Promega, Madison Wis.) was added to the cells, and the relative luminescence units (RLUs) of each well were determined. CellTiter-Glo added to 32 μL of medium without cells was used to obtain a background value. The Percent viability of each sample was determined as follows: (RLU sample-RLU background/RLU untreated cells-RLU background)×100=% viability.
# [2] = target: T1, ER-α (Homo sapiens, UniProt P03372); test: Breast Cancer Cell ER-α In Cell Western Assay (SP1); assay type: cell-based; conditions: MCF-7 cells, 4 or 24 hr post compound addition, SP1 antibody; for Emax: MCF7, read-out: ER-α In Cell Western Assay (SP1) Max Response; for DC50: read-out: ER-α In Cell Western Assay (SP1) IC50
# T1 construct: endogenous in cells; host or cells: MCF-7
# T1 sequence (P03372 1-595): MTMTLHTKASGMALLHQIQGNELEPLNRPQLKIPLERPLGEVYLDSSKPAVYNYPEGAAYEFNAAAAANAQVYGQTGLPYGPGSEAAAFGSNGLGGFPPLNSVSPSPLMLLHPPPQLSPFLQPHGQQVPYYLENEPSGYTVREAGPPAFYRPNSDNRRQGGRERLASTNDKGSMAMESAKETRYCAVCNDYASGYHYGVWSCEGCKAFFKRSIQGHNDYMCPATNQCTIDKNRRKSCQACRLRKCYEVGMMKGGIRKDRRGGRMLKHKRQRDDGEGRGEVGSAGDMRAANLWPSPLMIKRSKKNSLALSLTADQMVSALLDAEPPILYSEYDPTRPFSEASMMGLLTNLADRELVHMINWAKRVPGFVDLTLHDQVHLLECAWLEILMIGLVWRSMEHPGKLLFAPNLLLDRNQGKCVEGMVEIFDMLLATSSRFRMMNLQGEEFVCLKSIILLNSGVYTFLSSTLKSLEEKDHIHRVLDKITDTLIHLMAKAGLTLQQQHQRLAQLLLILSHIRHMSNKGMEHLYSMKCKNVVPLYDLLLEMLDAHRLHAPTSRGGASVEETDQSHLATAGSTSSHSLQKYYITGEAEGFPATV
# Description: MCF-7 cells were adjusted to a concentration of 200,000 cells per mL in RPMI containing 10% charcoal-stripped FBS and 20 mM HEPES. 16 microliters of the cell suspension (3200 cells) was added to each well of a poly-D-lysine 384 well plate, and the cells were incubated overnight to allow the cells to adhere. The following day an eleven point, serial semilog dilution of each compound was added to the cells in 16 μL at a final concentration ranging from 0.3-0.000003 μM. At 4 or 24 hr post compound addition, the cells were fixed (10% formalin in PBS) for 20 minutes. Cells were permeablized in PBS 0.1% Triton and blocked with LICOR blocking buffer (50 μl/well, 90′). The wells were then incubated overnight at 4° C. with SP1 rabbit monoclonal Ab (Thermo Scientific) diluted 1:1000 in LICOR blocking buffer/0.1% Tween-20. Wells which were treated with blocking buffer with Tween but no antibody were used as a background control. Wells were washed with 0.1% Tween-20/PBS and then incubated in goat anti-rabbit IRDye™ 800 CW (LICOR Inc.; 1:10000) and DRAQ5 DNA dye (1:2000 for 2 mM stock) diluted in LICOR blocking buffer containing 0.1% Tween-20 and 0.01% SDS for 60 minutes. Cells were washed (50 μl/well, 5′ each) in 0.1% Tween-20/PBS. Plates were scanned on a LICOR Odyssey infrared imaging system. Integrated intensities in the 800 nm channel and 700 nm channel were measured to determine levels of ER and DNA respectively. Percent ER levels were determined as follows: (Integrated intensity 800 nm sample/integrated intensity 700 nm sample)/(Integrated intensity 800 nm untreated cells/integrated intensity 700 nm untreated cells)×100=% ER levels.
Structure (SMILES),MCF7 Viability Assay Max Response [1],IC50 [1] [nM],Emax [2] [%],DC50 [2] [nM]
"CC/C(=C(/c1ccc(/C=C/C(=O)O)cc1)c1ccc(-c2cnn(C)c2)cc1)c1ccccc1 [Example 19, (E)-3-(4-((E)-1-(4-(1-Methyl-1H-pyrazol-4-yl)phenyl)-2-phenylbut-1-en-1-yl)phenyl)acrylic acid]",++ (++ = a single % value ≧ 40%),≤ 100,≥ 40,≤ 100
"CC/C(=C(/c1ccc(/C=C/C(=O)O)cc1)c1ccc(-c2cncs2)cc1F)c1ccccc1 [Example 20, (E)-3-(4-((E)-1-(2-Fluoro-4-(thiazol-5-yl)phenyl)-2-phenylbut-1-en-1-yl)phenyl)acrylic acid]",++ (++ = a single % value ≧ 40%),≤ 100,≥ 40,≤ 100
"CC/C(=C(/c1ccc(/C=C/C(=O)O)cc1)c1ccc(-c2cncs2)c(F)c1)c1ccccc1 [Example 21, (E)-3-(4-((E)-1-(3-Fluoro-4-(thiazol-5-yl)phenyl)-2-phenylbut-1-en-1-yl)phenyl)acrylic acid]",++ (++ = a single % value ≧ 40%),≤ 100,≥ 40,≤ 100
"CC/C(=C(/c1ccc(/C=C/C(=O)O)cc1)c1ccc(-c2cn[nH]c2)cc1)c1ccccc1 [Example 22, (E)-3-(4-((E)-1-(4-(1H-Pyrazol-4-yl)phenyl)-2-phenylbut-1-en-1-yl)phenyl)acrylic acid]",++ (++ = a single % value ≧ 40%),≤ 100,≥ 40,≤ 100
"CC/C(=C(/c1ccc(/C=C/C(=O)O)cc1)c1ccc(N2CCN(C)CC2)cc1)c1ccccc1 [Example 23, (E)-3-(4-((E)-1-(4-(4-Methylpiperazin-1-yl)phenyl)-2-phenylbut-1-en-1-yl)phenyl)acrylic acid]",++ (++ = a single % value ≧ 40%),> 100,≥ 40,≤ 100
"CC/C(=C(/c1ccc(/C=C/C(=O)O)cc1)c1ccc(N2CCCCC2)cc1)c1ccccc1 [Example 24, (E)-3-(4-((E)-2-Phenyl-1-(4-(piperidin-1-yl)phenyl)but-1-en-1-yl)phenyl)acrylic acid]",++ (++ = a single % value ≧ 40%),> 100,≥ 40,> 100
"O=C(O)/C=C/c1ccc(/C(=C(\c2ccccc2)C2CCC2)c2ccc(-c3cncs3)cn2)cc1 [Example 25, (E)-3-(4-((E)-2-Cyclobutyl-2-phenyl-1-(5-(thiazol-5-yl)pyridin-2-yl)vinyl)phenyl)acrylic acid]",++ (++ = a single % value ≧ 40%),> 100,≥ 40,> 100
"O=C(O)/C=C/c1ccc(/C(=C(\c2ccccc2)C2CCC2)c2cccc(-c3cn[nH]c3)c2)cc1 [Example 26, (E)-3-(4-((E)-1-(3-(1H-Pyrazol-4-yl)phenyl)-2-cyclobutyl-2-phenylvinyl)phenyl)acrylic acid]",+ (+ = a single % value < 40%),> 100,≥ 40,> 100
"O=C(O)/C=C/c1ccc(/C(=C(\c2ccccc2)C2CCC2)c2ccc(-c3ccon3)cc2)cc1 [Example 27, (E)-3-(4-((E)-2-Cyclobutyl-1-(4-(isoxazol-3-yl)phenyl)-2-phenylvinyl)phenyl)acrylic acid]",++ (++ = a single % value ≧ 40%),≤ 100,≥ 40,≤ 100
"CC/C(=C(/c1ccc(/C=C/C(=O)O)cc1)c1ccc(-c2cncs2)cc1)c1ccncc1Cl [Example 28, (E)-3-(4-((E)-2-(3-Chloropyridin-4-yl)-1-(4-(thiazol-5-yl)phenyl)but-1-en-1-yl)phenyl)acrylic acid]",++ (++ = a single % value ≧ 40%),≤ 100,≥ 40,≤ 100
"CC/C(=C(/c1ccc(/C=C/C(=O)O)cc1)c1ccc(-c2cncs2)cc1)c1ccccc1Cl [Example 29, (E)-3-(4-((E)-2-(2-Chlorophenyl)-1-(4-(thiazol-5-yl)phenyl)but-1-en-1-yl)phenyl)acrylic acid]",++ (++ = a single % value ≧ 40%),≤ 100,≥ 40,≤ 100
"CC/C(=C(/c1ccc(/C=C/C(=O)O)cc1)c1ccc(-c2cncs2)cc1)c1cccc(OC)c1 [Example 30, (E)-3-(4-((E)-2-(3-Methoxyphenyl)-1-(4-(thiazol-5-yl)phenyl)but-1-en-1-yl)phenyl)acrylic acid]",++ (++ = a single % value ≧ 40%),≤ 100,≥ 40,≤ 100
"CC/C(=C(/c1ccc(/C=C/C(=O)O)cc1)c1ccc(-c2cncs2)cc1)c1ccc2occc2c1 [Example 31, (E)-3-(4-((E)-2-(Benzofuran-5-yl)-1-(4-(thiazol-5-yl)phenyl)but-1-en-1-yl)phenyl)acrylic acid]",++ (++ = a single % value ≧ 40%),≤ 100,≥ 40,≤ 100
"CC/C(=C(/c1ccc(/C=C/C(=O)O)cc1)c1ccc(-c2cncs2)cc1)c1cscc1C [Example 32, (E)-3-(4-((E)-2-(4-Methylthiophen-3-yl)-1-(4-(thiazol-5-yl)phenyl)but-1-en-1-yl)phenyl)acrylic acid]",++ (++ = a single % value ≧ 40%),≤ 100,≥ 40,≤ 100
"O=C(O)/C=C/c1ccc(/C(=C(\c2ccc(F)cc2Cl)C2CCC2)c2ccc(-c3cncs3)cc2)cc1 [Example 33, (E)-3-(4-((E)-2-(2-Chloro-4-fluorophenyl)-2-cyclobutyl-1-(4-(thiazol-5-yl)phenyl)vinyl)phenyl)acrylic acid]",++ (++ = a single % value ≧ 40%),≤ 100,≥ 40,≤ 100
"O=C(O)/C=C/c1ccc(/C(=C(\c2ccncc2Cl)C2CCC2)c2ccc(-c3cncs3)cc2)cc1 [Example 34, (E)-3-(4-((E)-2-(3-Chloropyridin-4-yl)-2-cyclobutyl-1-(4-(thiazol-5-yl)phenyl)vinyl)phenyl)acrylic acid]",++ (++ = a single % value ≧ 40%),≤ 100,≥ 40,≤ 100
"Cc1cscc1/C(=C(\c1ccc(/C=C/C(=O)O)cc1)c1ccc(-c2cncs2)cc1)C1CCC1 [Example 35, (E)-3-(4-((E)-2-Cyclobutyl-2-(4-methylthiophen-3-yl)-1-(4-(thiazol-5-yl)phenyl)vinyl)phenyl)acrylic acid]",++ (++ = a single % value ≧ 40%),≤ 100,≥ 40,≤ 100
"O=C(O)/C=C/c1ccc(/C(=C(\c2ccc(F)cc2Cl)C2CCC2)c2ccc(N3CCOCC3)cc2)cc1 [Example 36, (E)-3-(4-((E)-2-(2-Chloro-4-fluorophenyl)-2-cyclobutyl-1-(4-morpholinophenyl)vinyl)phenyl)acrylic acid]",++ (++ = a single % value ≧ 40%),≤ 100,≥ 40,≤ 100
